# Data published in article PMC2857410 (The Journal of neuroscience : the official journal of the …, 2009).
# Experiments:
# [1] = target: homomeric α7-nAChR (Xenopus oocytes) (Rattus norvegicus, UniProt Q05941); assay: two-electrode voltage clamp, agonist-induced current; type: cell-based; conditions: 10 mM, 2 s exposure, -70 mV, pH 7.5
# [2] = target: heteromeric α7β2-nAChR (Xenopus oocytes) (Rattus norvegicus, UniProt P12390+Q05941); assay: as above; type: cell-based; conditions: 10 mM, 2 s exposure, -70 mV, pH 7.5
# Sequence of heteromeric α7β2-nAChR (Xenopus oocytes) (Q05941 23-502): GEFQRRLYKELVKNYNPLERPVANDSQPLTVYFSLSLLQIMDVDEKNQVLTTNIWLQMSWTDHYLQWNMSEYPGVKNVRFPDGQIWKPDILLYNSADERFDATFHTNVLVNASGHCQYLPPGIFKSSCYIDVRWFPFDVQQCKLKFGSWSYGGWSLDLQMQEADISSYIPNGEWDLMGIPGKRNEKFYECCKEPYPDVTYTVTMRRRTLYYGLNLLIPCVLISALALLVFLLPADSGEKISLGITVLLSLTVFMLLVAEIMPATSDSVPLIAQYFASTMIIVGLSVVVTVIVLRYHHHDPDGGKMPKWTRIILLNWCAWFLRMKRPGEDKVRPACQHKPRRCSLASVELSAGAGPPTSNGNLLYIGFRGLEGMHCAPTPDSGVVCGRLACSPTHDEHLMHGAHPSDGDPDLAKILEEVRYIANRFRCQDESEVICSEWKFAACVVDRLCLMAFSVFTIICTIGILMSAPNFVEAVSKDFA
# Sequence of heteromeric α7β2-nAChR (Xenopus oocytes) (P12390 25-500): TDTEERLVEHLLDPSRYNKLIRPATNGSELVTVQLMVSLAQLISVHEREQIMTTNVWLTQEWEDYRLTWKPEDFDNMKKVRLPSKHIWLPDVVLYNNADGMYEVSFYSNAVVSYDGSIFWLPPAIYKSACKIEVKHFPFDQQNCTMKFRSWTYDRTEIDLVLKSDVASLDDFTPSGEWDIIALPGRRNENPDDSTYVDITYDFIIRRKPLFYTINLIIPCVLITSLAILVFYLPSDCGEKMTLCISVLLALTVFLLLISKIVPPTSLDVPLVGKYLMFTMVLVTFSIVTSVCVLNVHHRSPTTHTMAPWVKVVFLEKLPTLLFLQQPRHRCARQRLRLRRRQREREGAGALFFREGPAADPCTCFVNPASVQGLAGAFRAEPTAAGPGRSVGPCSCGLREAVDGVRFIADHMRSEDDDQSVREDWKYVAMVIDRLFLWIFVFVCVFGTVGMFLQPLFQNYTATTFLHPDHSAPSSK
# Sequence of homomeric α7-nAChR (Xenopus oocytes) (Q05941 23-502): as the sequence (Q05941 23-502) above
smiles,measurement,setting,value
C[N+](C)(C)CCO [choline],"two-electrode voltage clamp, agonist-induced current",[1],oocytes injected with rat α7-nAChR subunit cRNA alone
same,"two-electrode voltage clamp, agonist-induced current",[2],exhibited smaller peak current responses to choline and slower current decay rates
